Reference: patent US20220177538A1, “CO-AGONISTS AT GLP-1 AND GIP RECEPTORS SUITABLE FOR ORAL DELIVERY” (Novo Nordisk A/S, priority 2020, published 2022)
Where two headings read alike, the source gives them in different places. Marks after values point to notes of the source that are not given here. Starred links: 1 amine or outer side, 2 acyl side, 3 side chain; linkers in the order of their positions; H or OH if unused. Non-standard residues stand in square brackets, D forms with d. Residues, ends and D or L forms follow the SMILES beside them. Groups on a side chain read outwards from the residue. *: point of attachment. C18 diacid = O=C(O)CCCCCCCCCCCCCCCCC(=O)*; γGlu = O=C(O)[C@H](CCC(=O)[*:2])N[*:1]; εLys = N[C@@H](CCCCN[*:1])C(=O)[*:2]; Aib = CC(C)(N)C(=O)O

Tests used:
[1] = Pharmacokinetic study in minipigs after i.v. administration; details: female, Göttingen, minipig, in vivo, iv
Description: The purpose of this example is to determine the half-life in vivo of the derivatives of the present invention after i.v. administration to minipigs, i.e. the prolongation of their time in the body and thereby their time of action. This is done in a pharmacokinetic (PK) study, where the terminal half-life of the derivative in question is determined. By terminal half-life is generally meant the period of time it takes to halve a certain plasma concentration, measured after the initial distribution phase.
Female Göttingen minipigs were obtained from Ellegaard Göttingen Minipigs (Dalmose, Denmark) approximately 7-14 months of age and weighing from approximately 16-35 kg were used in the studies. The minipigs were housed individually and fed restrictedly once daily with SDS minipig diet (Special Diets Services, Essex, UK).
After at 3 weeks of acclimatisation two permanent central venous catheters were implanted in vena cava caudalis in each animal. The animals were allowed 1 week recovery after the surgery, and were then used for repeated pharmacokinetic studies with a suitable wash-out period between successive derivative dosing.
The animals were fasted for approximately 18 hours before dosing and from 0 to 4 hours after dosing but had adlibitum access to water during the whole period.
The sodium salts of compounds of Examples 1 were dissolved to a concentration of 20-40 nmol/mL in a buffer containing 0.007% polysorbate 20, 50 mM sodium phosphate, 70 mM sodium chloride, pH 7.4. […]
Plasma was pipetted into Micronic tubes on dry ice and kept at −20° C. until analysed for plasma concentration of the compounds using ELISA, or a similar antibody-based assay, or LCMS. Individual plasma concentration-time profiles were analysed by a non-compartmental model in Phoenix WinNonLin ver. […] (Pharsight Inc., Mountain View, Calif., USA), and the resulting terminal half-lives (harmonic mean) determined.

[2] = Pharmacokinetic study in dogs after oral dosing of tablets with SNAC; type: in vivo, Beagle dogs; details: for half-life / Tmax: male
Procedure, shortened: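 The tablets held 3-4 mg compound plus 100-300 mg SNAC and were given to fasted male beagles (6-8 per group); non-compartmental PK per animal.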

[3] = oral tablet, SNAC 300 mg, test substance 3 mg, Beagle dogs, arithmetic mean

Structure (SMILES) | half-life ([1]; i.v. administration to minipigs, harmonic mean, read-out: Terminal half-life t1/2 (converted)) [h] | half-life ([2]; dog, in vivo, oral tablet, SNAC 300 mg, test substance 3 mg, Beagle dogs, harmonic mean, read-out: t1/2 (converted)) [h] | Tmax ([2]; dog, in vivo, oral tablet, SNAC 300 mg, test substance 3 mg, Beagle dogs, median, read-out: Tmax) [h] | AUC/Dose [2, 3] | Cmax/Dose [2, 3] | half-life [1] [h] | AUC/Dose ([2]; dog, in vivo, po) | Cmax/Dose ([2]; dog, in vivo, po) | Tmax ([2]; Beagle, dog, in vivo, po) [h] | half-life ([2]; Beagle, dog, in vivo, po) [h]
CC[C@H](C)[C@H](NC(=O)[C@H](Cc1ccccc1)NC(=O)[C@H](CCC(=O)O)NC(=O)[C@H](CCCNC(=N)N)NC(=O)[C@H](C)NC(=O)[C@H](C)NC(=O)[C@H](CCC(N)=O)NC(=O)[C@H](CCCCNC(=O)[C@@H](N)CCCCNC(=O)[C@@H](N)CCCCNC(=O)CC[C@H](NC(=O)CCCCCCCCCCCCCCCCC(=O)O)C(=O)O)NC(=O)[C@H](CCC(=O)O)NC(=O)[C@H](CC(C)C)NC(=O)[C@H](CC(C)C)NC(=O)[C@@H](NC(=O)[C@H](CO)NC(=O)[C@H](Cc1ccc(O)cc1)NC(=O)[C@H](CC(=O)O)NC(=O)[C@H](CO)NC(=O)[C@@H](NC(=O)[C@H](Cc1ccccc1)NC(=O)[C@@H](NC(=O)CNC(=O)[C@H](CCC(=O)O)NC(=O)C(C)(C)NC(=O)[C@@H](N)Cc1ccc(O)cc1)[C@@H](C)O)[C@@H](C)O)[C@@H](C)CC)C(=O)N[C@@H](CCC(=O)O)C(=O)N[C@@H](Cc1c[nH]c2ccccc12)C(=O)N[C@@H](CC(C)C)C(=O)N[C@@H](CC(C)C)C(=O)N[C@@H](CCCNC(=N)N)C(=O)NCC(=O)NCC(=O)N1CCC[C@H]1C(=O)N[C@@H](CCC(=O)O)C(=O)N[C@@H](CO)C(=O)NCC(=O)N[C@@H](C)C(=O)N1CCC[C@H]1C(=O)N1CCC[C@H]1C(=O)N1CCC[C@H]1C(=O)N[C@@H](CO)C(=O)O [Compound 28] (H-Y[Aib]EGTFTSDYSILLEK([εLys-εLys-γGlu-C18 diacid])QAAREFIEWLLRGGPESGAPPPS-OH) | 35 | 67 | 1.3 | 18.6** kg * h/L | 0.36** kg/L | – | – | – | – | –
CC[C@H](C)[C@H](NC(=O)[C@H](Cc1ccccc1)NC(=O)[C@H](CCC(=O)O)NC(=O)[C@H](CCC(N)=O)NC(=O)[C@H](C)NC(=O)[C@H](C)NC(=O)[C@H](CCC(N)=O)NC(=O)[C@H](CCCCNC(=O)[C@@H](N)CCCCNC(=O)[C@@H](N)CCCCNC(=O)CC[C@H](NC(=O)CCCCCCCCCCCCCCCCC(=O)O)C(=O)O)NC(=O)[C@H](CCC(=O)O)NC(=O)[C@H](CC(C)C)NC(=O)[C@H](CC(C)C)NC(=O)[C@@H](NC(=O)[C@H](CO)NC(=O)[C@H](Cc1ccc(O)cc1)NC(=O)[C@H](CC(=O)O)NC(=O)[C@H](CO)NC(=O)[C@@H](NC(=O)[C@H](Cc1ccccc1)NC(=O)[C@@H](NC(=O)CNC(=O)[C@H](CCC(=O)O)NC(=O)C(C)(C)NC(=O)[C@@H](N)Cc1ccc(O)cc1)[C@@H](C)O)[C@@H](C)O)[C@@H](C)CC)C(=O)N[C@@H](CCC(=O)O)C(=O)N[C@@H](Cc1c[nH]c2ccccc12)C(=O)N[C@@H](CC(C)C)C(=O)N[C@@H](CC(C)C)C(=O)N[C@@H](C)C(=O)NCC(=O)NCC(=O)N1CCC[C@H]1C(=O)N[C@@H](CO)C(=O)N[C@@H](CO)C(=O)NCC(=O)N[C@@H](C)C(=O)N1CCC[C@H]1C(=O)N1CCC[C@H]1C(=O)N1CCC[C@H]1C(=O)N[C@@H](CO)C(=O)O [Compound 29] (H-Y[Aib]EGTFTSDYSILLEK([εLys-εLys-γGlu-C18 diacid])QAAQEFIEWLLAGGPSSGAPPPS-OH) | – | – | – | – | – | 68 | 16.6** kg * h/L | 0.26** kg/L | 1.2 | 69
CC[C@H](C)[C@H](NC(=O)[C@H](Cc1ccccc1)NC(=O)[C@H](CCC(=O)O)NC(=O)[C@H](CCCNC(=N)N)NC(=O)[C@H](C)NC(=O)[C@H](C)NC(=O)[C@H](CCC(N)=O)NC(=O)[C@H](CCCCNC(=O)[C@@H](N)CCCCNC(=O)[C@@H](N)CCCCNC(=O)CC[C@H](NC(=O)CCCCCCCCCCCCCCCCC(=O)O)C(=O)O)NC(=O)[C@H](CCC(=O)O)NC(=O)[C@H](CC(C)C)NC(=O)[C@H](CC(C)C)NC(=O)[C@@H](NC(=O)[C@H](CO)NC(=O)[C@H](Cc1ccc(O)cc1)NC(=O)[C@H](CC(=O)O)NC(=O)[C@H](CO)NC(=O)[C@@H](NC(=O)[C@H](Cc1ccccc1)NC(=O)[C@@H](NC(=O)CNC(=O)[C@H](CCC(=O)O)NC(=O)C(C)(C)NC(=O)[C@@H](N)Cc1ccc(O)cc1)[C@@H](C)O)[C@@H](C)O)[C@@H](C)CC)C(=O)N[C@@H](CCC(=O)O)C(=O)N[C@@H](Cc1c[nH]c2ccccc12)C(=O)N[C@@H](CC(C)C)C(=O)N[C@@H](CC(C)C)C(=O)N[C@@H](C)C(=O)NCC(=O)NCC(=O)N1CCC[C@H]1C(=O)N[C@@H](CO)C(=O)N[C@@H](CO)C(=O)NCC(=O)N[C@@H](C)C(=O)N1CCC[C@H]1C(=O)N1CCC[C@H]1C(=O)N1CCC[C@H]1C(=O)N[C@@H](CO)C(=O)O [Compound 31] (H-Y[Aib]EGTFTSDYSILLEK([εLys-εLys-γGlu-C18 diacid])QAAREFIEWLLAGGPSSGAPPPS-OH) | – | – | – | – | – | 49 | 17.9** kg * h/L | 0.35** kg/L | 1.3 | 56
